*1 amine or outer side, *2 acyl side, *3 side chain or, on linkers, in order; H or OH if unused. Where a SMILES comes first, the peptide text is derived from it. Bridges are numbered along the chain shown (N, C = ends). [ ]: non-standard residue; d: D form. The star is where a group is joined. X5 = NC(=O)[C@H](CCCCNC(=O)CN1CCN(CC(=O)O)CCN(CC(=O)O)CCN(CC(=O)O)CC1)NC(=O)CCC(=O)NCCCOCCOCCOCCCN*; X3 = O=C(O)CN1CCN(CC(=O)O)CCN(CC(=O)NCCCOCCOCCOCCCN*)CCN(CC(=O)O)CC1; DOTA = O=C(O)CN1CCN(CC(=O)O)CCN(CC(=O)*)CCN(CC(=O)O)CC1; Trp(5-Br) = N[C@@H](Cc1c[nH]c2ccc(Br)cc12)C(=O)O; Trp(5-Cl) = N[C@@H](Cc1c[nH]c2ccc(Cl)cc12)C(=O)O; Pyridine(2,6-diCH2) = c1cc(C[*:1])nc(C[*:2])c1; Trp(6-F) = N[C@@H](Cc1c[nH]c2cc(F)ccc12)C(=O)O; Pro(4R-NH2) = N[C@H]1CN[C@H](C(=O)O)C1; Pro(3S-OH) = O=C(O)[C@H]1NCC[C@@H]1O; mXylylene = c1cc(C[*:1])cc(C[*:2])c1; X7 = c1cc(CSCCN[*:2])cc(C[*:1])c1; Hyp = O=C(O)[C@@H]1C[C@@H](O)CN1; NMeD = CN[C@@H](CC(=O)O)C(=O)O; Suc = O=C(CCC(=O)[*:2])[*:1]; Api = NC1(C(=O)O)CCNCC1; Thp = NC1(C(=O)O)CCOCC1; Aib = CC(C)(N)C(=O)O

The test has as its target T1, GIPR (CHO-K1-hGIPR cells) (Homo sapiens, UniProt P48546).
T1 construct: host or cells: CHO-K1
T1 sequence (P48546 22-466): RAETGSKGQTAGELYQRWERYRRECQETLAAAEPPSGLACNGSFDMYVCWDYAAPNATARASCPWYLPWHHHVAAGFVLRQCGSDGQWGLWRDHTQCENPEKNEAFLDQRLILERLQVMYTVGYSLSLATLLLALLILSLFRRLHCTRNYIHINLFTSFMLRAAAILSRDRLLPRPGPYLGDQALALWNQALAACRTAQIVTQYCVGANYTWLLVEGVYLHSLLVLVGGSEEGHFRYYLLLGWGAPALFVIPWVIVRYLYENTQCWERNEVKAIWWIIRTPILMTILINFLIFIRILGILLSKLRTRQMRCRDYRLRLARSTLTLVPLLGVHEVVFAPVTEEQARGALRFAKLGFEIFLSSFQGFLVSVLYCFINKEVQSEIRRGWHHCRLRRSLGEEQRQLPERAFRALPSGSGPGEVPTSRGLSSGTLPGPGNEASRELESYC
In words: FACS binding assay. The settings on record: competition with 20 nM GIP-057, 4° C., 1 hour, read-out: pIC50 Category (converted). The method, boiled down: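 Steps: detach CHO-K1-hGIPR cells (Accutase); wash in PBS/1% FCS; adjust to 500.000 cells per mL; wash ice-cold; incubate APC-streptavidin 1 μg/mL, 30 min on ice; wash twice; acquire on flow cytometer; fit MFI-concentration data with a four-parameter logistic model.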
On to `CC[C@H](C)[C@@H]1NC(=O)[C@H](CC(C)C)NC(=O)C(C)(C)NC(=O)[C@@H](NC(=O)[C@@H](CC(C)C)NC(=O)[C@H](CCC(=O)O)NC(=O)[C@@H]2[C@@H](O)CCN2C(=O)[C@H](Cc2c[nH]c3ccc(Cl)cc23)NC(=O)[C@H](Cc2c[nH]c3ccccc23)NC(=O)[C@H](CC(=O)O)NC(=O)CCC(=O)NCCCOCCOCCOCCCNC(=O)CN2CCN(CC(=O)O)CCN(CC(=O)O)CCN(CC(=O)O)CC2)CSCc2cccc(c2)CSCCNC1=O` [GIP-102, DOTA-Ttds-Asp-Trp-5Clw-H3p-Glu-leu-[Cys(3MeBn)-Aib-Leu-Ile-AET]] ({X3-Suc}-DW[Trp(5-Cl)][Pro(3S-OH)]E[dL]C[Aib]LI; linker 7-C via X7), for which the IC50 was less than 10 nM.

Take `CC[C@H](C)[C@@H]1NC(=O)[C@H](CC(C)C)NC(=O)C(C)(C)NC(=O)[C@@H](NC(=O)[C@@H](CC(C)C)NC(=O)[C@H](CCC(=O)O)NC(=O)[C@@H]2CCCN2C(=O)[C@H](Cc2c[nH]c3ccc(Cl)cc23)NC(=O)[C@H](Cc2c[nH]c3cc(F)ccc23)NC(=O)[C@H](CC(=O)O)NC(=O)CCC(=O)NCCCOCCOCCOCCCNC(=O)CN2CCN(CC(=O)O)CCN(CC(=O)O)CCN(CC(=O)O)CC2)CSCc2cccc(c2)CSCCNC1=O` [GIP-104, DOTA-Ttds-Asp-6Fw-5Clw-Pro-Glu-leu-[Cys(3MeBn)-Aib-Leu-Ile-AET]] ({X3-Suc}-D[Trp(6-F)][Trp(5-Cl)]PE[dL]C[Aib]LI; linker 7-C via X7): the IC50 was less than 10 nM.

As to `CC[C@H](C)[C@@H]1NC(=O)[C@H](CC(C)C)NC(=O)C(C)(C)NC(=O)[C@@H](NC(=O)[C@@H](CC(C)C)NC(=O)[C@H](CCC(=O)O)NC(=O)[C@@H]2CCCN2C(=O)[C@H](Cc2c[nH]c3ccc(Br)cc23)NC(=O)[C@H](Cc2c[nH]c3cc(F)ccc23)NC(=O)[C@H](CC(=O)O)NC(=O)CCC(=O)NCCCOCCOCCOCCCNC(=O)CN2CCN(CC(=O)O)CCN(CC(=O)O)CCN(CC(=O)O)CC2)CSCc2cccc(c2)CSCCNC1=O` [GIP-105, DOTA-Ttds-Asp-6Fw-5Brw-Pro-Glu-leu-[Cys(3MeBn)-Aib-Leu-Ile-AET]] ({X3-Suc}-D[Trp(6-F)][Trp(5-Br)]PE[dL]C[Aib]LI; linker 7-C via X7), the IC50 is less than 10 nM.

For `CC[C@H](C)[C@@H]1NC(=O)[C@H](CC(C)C)NC(=O)C2(CCOCC2)NC(=O)[C@@H](NC(=O)[C@@H](CC(C)C)NC(=O)[C@H](CCC(=O)O)NC(=O)[C@@H]2C[C@@H](O)CN2C(=O)[C@H](Cc2c[nH]c3ccc(Cl)cc23)NC(=O)[C@H](Cc2c[nH]c3ccccc23)NC(=O)CCC(=O)O)CSCc2cccc(n2)CSC[C@@H](C(=O)N[C@@H](CCCCNC(=O)CN2CCN(CC(=O)O)CCN(CC(=O)O)CCN(CC(=O)O)CC2)C(N)=O)NC1=O` [GIP-115, HO-Succinyl-Trp-5Clw-Hyp-Glu-leu-[Cys(2Lut)-Thp-Leu-Ile-Cys]-Lys(DOTA)-NH2] (Suc-W[Trp(5-Cl)][Hyp]E[dL]C[Thp]LICK(DOTA)-NH2; linker 6-10 via Pyridine(2,6-diCH2)), the IC50 is less than 10 nM.

For the compound `CC[C@H](C)[C@@H]1NC(=O)[C@H](CC(C)C)NC(=O)C2(CCOCC2)NC(=O)[C@@H](NC(=O)[C@@H](CC(C)C)NC(=O)[C@H](CCC(=O)O)NC(=O)[C@@H]2C[C@@H](O)CN2C(=O)[C@H](Cc2c[nH]c3ccc(Cl)cc23)NC(=O)[C@H](Cc2c[nH]c3ccccc23)NC(=O)CCC(=O)O)CSCc2cccc(n2)CSC[C@@H](C(=O)N[C@H](CCCCNC(=O)CN2CCN(CC(=O)O)CCN(CC(=O)O)CCN(CC(=O)O)CC2)C(N)=O)NC1=O` [GIP-116, HO-Succinyl-Trp-5Clw-Hyp-Glu-leu-[Cys(2Lut)-Thp-Leu-Ile-Cys]-lys(DOTA)-NH2] (Suc-W[Trp(5-Cl)][Hyp]E[dL]C[Thp]LIC[dK](DOTA)-NH2; linker 6-10 via Pyridine(2,6-diCH2)), the IC50 is less than 10 nM.

Consider `CC[C@H](C)[C@@H]1NC(=O)[C@H](CC(C)C)NC(=O)C2(CCN(C(=O)CN3CCN(CC(=O)O)CCN(CC(=O)O)CCN(CC(=O)O)CC3)CC2)NC(=O)[C@@H](NC(=O)[C@@H](CC(C)C)NC(=O)[C@H](CCC(=O)O)NC(=O)[C@@H]2C[C@@H](O)CN2C(=O)[C@H](Cc2c[nH]c3ccc(Cl)cc23)NC(=O)[C@H](Cc2c[nH]c3ccccc23)NC(=O)[C@H](CC(=O)O)NC(C)=O)CSCc2cccc(n2)CSC[C@@H](C(N)=O)NC1=O` [GIP-122, Ac-Asp-Trp-5Clw-Hyp-Glu-leu-[Cys(2Lut)-Apc(DOTA)-Leu-Ile-Cys]-NH2] (Ac-DW[Trp(5-Cl)][Hyp]E[dL]C[Api](DOTA)LIC-NH2; linker 7-11 via Pyridine(2,6-diCH2)), for which the IC50 is less than 10 nM.

On to `CC[C@H](C)[C@@H]1NC(=O)[C@H](CC(C)C)NC(=O)C2(CCN(C(=O)CN3CCN(CC(=O)O)CCN(CC(=O)O)CCN(CC(=O)O)CC3)CC2)NC(=O)[C@@H](NC(=O)[C@@H](CC(C)C)NC(=O)[C@H](CCC(=O)O)NC(=O)[C@@H]2C[C@@H](N)CN2C(=O)[C@H](Cc2c[nH]c3ccc(Cl)cc23)NC(=O)[C@H](Cc2c[nH]c3ccccc23)NC(=O)[C@H](CC(=O)O)NC(C)=O)CSCc2cccc(n2)CSC[C@@H](C(N)=O)NC1=O` [GIP-123, Ac-Asp-Trp-5Clw-Tap-Glu-leu-[Cys(2Lut)-Apc(DOTA)-Leu-Ile-Cys]-NH2] (Ac-DW[Trp(5-Cl)][Pro(4R-NH2)]E[dL]C[Api](DOTA)LIC-NH2; linker 7-11 via Pyridine(2,6-diCH2)), for which the IC50 is less than 10 nM.

Regarding `CC[C@H](C)[C@@H]1NC(=O)[C@H](CC(C)C)NC(=O)C2(CCOCC2)NC(=O)[C@@H](NC(=O)[C@@H](CC(C)C)NC(=O)[C@H](CCC(=O)O)NC(=O)[C@@H]2C[C@@H](O)CN2C(=O)[C@H](Cc2c[nH]c3ccc(Cl)cc23)NC(=O)[C@H](Cc2c[nH]c3ccccc23)NC(=O)[C@H](CC(=O)O)NC(=O)CN2CCN(CC(=O)O)CCN(CC(=O)O)CCN(CC(=O)O)CC2)CSCc2cccc(n2)CSC[C@@H](C(N)=O)NC1=O` [GIP-125, DOTA-Asp-Trp-5Clw-Hyp-Glu-leu-[Cys(2Lut)-Thp-Leu-Ile-Cys]-NH2] ({DOTA}-DW[Trp(5-Cl)][Hyp]E[dL]C[Thp]LIC-NH2; linker 7-11 via Pyridine(2,6-diCH2)), the IC50 is less than 10 nM.

Take `CC[C@H](C)[C@@H]1NC(=O)[C@H](CC(C)C)NC(=O)C(C)(C)NC(=O)[C@@H](NC(=O)[C@H](CC(C)C)NC(=O)[C@H](CCC(=O)O)NC(=O)[C@@H]2CCCN2C(=O)[C@H](Cc2c[nH]c3ccccc23)NC(=O)[C@H](Cc2c[nH]c3ccccc23)NC(=O)[C@H](CC(=O)O)N(C)C(=O)CCC(=O)NCCCOCCOCCOCCCNC(=O)CN2CCN(CC(=O)O)CCN(CC(=O)O)CCN(CC(=O)O)CC2)CSCc2cccc(c2)CSCCNC1=O` [GIP-130, DOTA-Ttds-Nmd-Trp-Trp-Pro-Glu-Leu-[Cys(3MeBn)-Aib-Leu-Ile-AET]] ({X3-Suc}-[NMeD]WWPELC[Aib]LI; linker 7-C via X7): the IC50 was 10 to 79.4 nM.

For `CC[C@H](C)[C@@H]1NC(=O)[C@H](CC(C)C)NC(=O)C(C)(C)NC(=O)[C@@H](NC(=O)[C@H](CC(C)C)NC(=O)[C@H](CCC(=O)O)NC(=O)[C@@H]2CCCN2C(=O)[C@H](Cc2c[nH]c3ccccc23)NC(=O)[C@H](Cc2c[nH]c3ccccc23)NC(=O)[C@H](CC(=O)O)NC(C)=O)CSCc2cccc(c2)CSC[C@@H](C(=O)NCCCOCCOCCOCCCNC(=O)CCC(=O)N[C@@H](CCCCNC(=O)CN2CCN(CC(=O)O)CCN(CC(=O)O)CCN(CC(=O)O)CC2)C(N)=O)NC1=O` [GIP-131, Ac-Asp-Trp-Trp-Pro-Glu-Leu-[Cys(3MeBn)-Aib-Leu-Ile-Cys]-Ttds-Lys(DOTA)-NH2] (Ac-DWWPELC[Aib]LIC-X5; linker 7-11 via mXylylene), the IC50 is 10 to 79.4 nM.

The record behind these values is patent publication US20250296971A1, “GASTRIC INHIBITORY PEPTIDE RECEPTOR LIGANDS” (priority 2021, published 2025).
